Assay results from article PMC6222425, “Novel 5′-Norcarbocyclic Derivatives of Bicyclic Pyrrolo- and Furano[2,3-d]Pyrimidine Nucleosides” (Molecules : A Journal of Synthetic Chemistry and Natural …, 2018).
Like-named read-outs stand apart in the source and are kept apart here.

Key:
[1] = tested on: KB-3-1 (human epidermoid carcinoma) cells; assay: Cell viability analysis by MTT assay, KB-3-1; type: cell-based
Description: (§1) The target compounds were tested on different lines of tumor cells, HuTu-80 (human duodenal cancer), B16 (mouse melanoma), A549 (human lung adenocarcinoma), KB-3-1 (human squamous cell carcinoma), HeLa (human squamous cell carcinoma of the cervix), as well as on human noncancer cells hFF3.
(§2) Human KB-3-1 epidermoid carcinoma cell line, human HeLa cervical epithelioid carcinoma cell line, human HuTu-80 duodenal cancer cells, human A549 lung carcinoma epithelial cells, mouse B16 melanoma cell line and human hFF3 fibroblast cells were obtained from the Russian Cell Culture Collection (St. Petersburg, Russia) and were cultured in DMEM (hFF3 cells in IMDM) supplemented with 10% (v/v) heat-inactivated fetal bovine serum, penicillin (100 U mL^−1), streptomycin (100 µg mL^−1) and amphotericin ([…]). Cells were maintained in a humidified atmosphere of 5% CO2 at 37 °C.
(§3) All compounds were dissolved in dimethylsulfoxide (DMSO) and stock solutions (10 mmol L^−1) were stored at −20 °C.
(§4) Cells growing in the logarithmic phase were seeded in triplicate in 96-well plates at a density of 5 × 10^3 cells per well for HeLa and HuTu-80 cells, 7 × 10^3 cells per well for KB-3-1 and hFF3, 10 × 10^3 for A549 and 20 × 10^3 for B16. The plates were incubated at 37 °C in a humidified 5% CO2 atmosphere. Cells were allowed to adhere to the surface for 24 h and then tested compounds were added at different concentrations and incubation was continued for 48 h. Then [3-(4,5-dimethylthiazol-2-yl)-2,5-diphenyltetrazolium bromide] (MTT) solution (10 µL, 5 mg mL^−1) was added to each well and the incubation was continued for an additional 3 h. The dark blue formazan crystals formed within the healthy cells were solubilized with DMSO and the absorbance was measured using a Multiscan RC plate reader at 570 nm. The IC50 was determined as the compound concentration required to decrease the A570 to 50% compared to the control (no tested compounds, DMSO) and was determined by interpolation from dose-response curves.

[2] = tested on: HuTu-80 (human duodenal cancer) cells; assay: Cell viability analysis by MTT assay, HuTu-80; type: cell-based
Description: as §1, §2, §3, §4

tumor cells = assay: Cell viability MTT assay, statements on the tumor cell panel as a whole; type: cell-based; settings: depending on the nature and origin of tumor cells
Description: as §1, §2, §4

[3] = tested on: HeLa (human cervical epithelioid carcinoma) cells; assay: Cell viability analysis by MTT assay, HeLa; type: cell-based
Description: as §1, §2, §3, §4

[4] = tested on: human noncancer cells hFF3 (fibroblasts); assay: Cell viability analysis by MTT assay, normal hFF3 cells; type: cell-based
Description: as §1, §2, §3, §4

[5] = tested on: A549 (human lung adenocarcinoma) cells; assay: Cell viability analysis by MTT assay, A549; type: cell-based
Description: as §1, §2, §3, §4

KB-3-1 cells [6] = assay: Apoptosis detection by Annexin V/PI staining, flow cytometry; type: cell-based, human; settings: 48 h
Description: To examine whether the tested 5′-norcarbocyclic derivatives induce cell death via apoptosis Annexin V and propidium iodide analysis were used (Figure 1). […] Annexin V binds phosphatidylserine residues, which are asymmetrically distributed toward the inner plasma membrane, and migrate to the outer plasma membrane during apoptosis.
Exponentially growing KB-3-1 cells in 6–well plates (5 × 10^5 cells per well) were treated with 3i (5, 10 and 20 µM) or with 0.1% (v/v) DMSO as a control for 48 h. The cells were stained with Annexin V-FITC and propidium iodide by the Annexin-FITC apoptosis staining/detection kit (Abcam) according to the instruction of the manufacturer. Briefly, cells were collected by scrapping, washed twice with cold PBS, and centrifuged (400 g, 5 min). Cells were resuspended in binding buffer (500 µL) and Annexin V–FITC (5 µL) and PI (5 µL) were added. Cells were incubated for 5 min at 20 °C in the dark. Finally, binding buffer (300 µL) was added to each tube, and the amount of apoptotic cells in samples were analyzed by flow cytometry. For each sample, 10,000 ungated events were acquired. Annexin V + PI − cells represent the early apoptotic populations. Annexin V + PI + cells represent either late apoptotic or secondary necrotic populations.

[7] = tested on: B16 (mouse melanoma) cells; assay: Cell viability analysis by MTT assay, B16; type: cell-based; settings: for IC50: MTT, 48 h incubation, read-out: Antiproliferative activity, IC50, B16
Description: as §1, §2, §3, §4

KB-3-1 cells [8] = assay: Mitochondria depolarization analysis, JC-1 staining, flow cytometry; type: cell-based, human; settings: 20 µM, KB-3-1, control 0.1% DMSO
Description: We next investigated whether 3i utilizes the mitochondrial ‘intrinsic’ pathway in the apoptotic death of KB-3-1 cells, since the pivotal role of mitochondria in triggering apoptosis is well established. We evaluated the mitochondrial transmembrane potential (∆Ψm) in KB-3-1 cells exposed to 3i using cytofluorometric analysis. Cells were stained with the specific mitochondrial cationic dye JC-1 (5,5′,6,6′-tetrachloro-1,1′,3,3′-tetraethyl benzimidazole carbocyanine iodide) that accumulates in the transmembrane space of polarized mitochondria and forms the so–called «J–aggregates», emitting red fluorescence. A decrease in ∆Ψm results in disappearance of J–aggregates and formation of JC-1 monomers, which emit in a green fluorescence.
Mitochondria involvement in apoptosis was measured by mitochondrial depolarization occurring early during onset of apoptosis. KB-3-1 cells were incubated with 3i (5, 10 and 20 µM) or 0.1% (v/v) DMSO as a control for 48 h. Then, cells were collected and incubated in complete media in the dark with mitochondrial potential sensor JC-1 (5 µg mL^−1) at 37 °C for 30 min, washed with cold PBS and resuspended in PBS (400 µL). Fluorescences of J–aggregate and J–monomer were recorded in the fluorescence channels 2 (FL2) and 1 (FL1), respectively, with flow cytometer «FC500». […]

Which results are given for `CCCCCc1ccc(-c2cc3cn(C4C=CC(O)C4)c(=O)nc3o2)cc1` (centres unmarked) [Compound 3i, 1-(4′-Hydroxy-2′-cyclopenten-1′-yl)-6-(4-pentylphenyl)-3H-furano[2,3-d]-pyrimidine-2-one]?
IC50 ([1]; Homo sapiens, KB 3-1, 48 h, MTT, 48 h incubation, read-out: Antiproliferative activity, IC50, KB-3-1): 8.2 ± 1.3 µM; Selectivity index, KB-3-1 ([1]; ratio of IC50 on normal hFF3 cells to IC50 of KB-3-1): >12.2; IC50 ([2]; Homo sapiens, HuTu80, MTT, 48 h incubation, read-out: Antiproliferative activity, IC50, HuTu80): 5.1 ± 0.6 µM; Selectivity index, HuTu80 ([2]; ratio of IC50 on normal hFF3 cells to IC50 of HuTu80): >19.6; Selectivity index value (tumor cells): 15–20; IC50 ([3]; Homo sapiens, HeLa, MTT, 48 h incubation, read-out: Antiproliferative activity, IC50, HeLa): 6.5 ± 0.9 µM; Selectivity index, HeLa ([3]; ratio of IC50 on normal hFF3 cells to IC50 of HeLa): >15.3; IC50 ([4]; Homo sapiens, HFF-3, 48 h, normal cells, MTT, 48 h incubation, read-out: Antiproliferative activity, IC50, hHFF3): > 100 µM; Toxic effect on normal hFF3 cells ([4]; concentrations up to 100 μM): not toxic; IC50 ([5]; Homo sapiens, A549, MTT, 48 h incubation, read-out: Antiproliferative activity, IC50, A549): 47.5 ± 5.8 µM; Selectivity index, A549 ([5]; ratio of IC50 on normal hFF3 cells to IC50 of A549): >2.1; Apoptotic cells (KB-3-1 cells [6]; 5 µM): 26%; Apoptotic cells (KB-3-1 cells [6]; 20 µM): 55.3%; IC50 [7]: 21.3 ± 2.9 µM; IC50 ([7]; Mus musculus, 48 h): 21 µM; Selectivity index, B16 ([7]; ratio of IC50 on normal hFF3 cells to IC50 of B16): >4.7; Red fluorescence value (JC-1 J-aggregates) as compared to the control (KB-3-1 cells [8]): decrease
